In the experiment the target is T1, particulate guanylyl cyclase receptor A (pGC-A) (Homo sapiens, UniProt P16066).
T1 construct: expressed in transfected cells; host or cells: HEK293
T1 sequence (P16066 33-1061): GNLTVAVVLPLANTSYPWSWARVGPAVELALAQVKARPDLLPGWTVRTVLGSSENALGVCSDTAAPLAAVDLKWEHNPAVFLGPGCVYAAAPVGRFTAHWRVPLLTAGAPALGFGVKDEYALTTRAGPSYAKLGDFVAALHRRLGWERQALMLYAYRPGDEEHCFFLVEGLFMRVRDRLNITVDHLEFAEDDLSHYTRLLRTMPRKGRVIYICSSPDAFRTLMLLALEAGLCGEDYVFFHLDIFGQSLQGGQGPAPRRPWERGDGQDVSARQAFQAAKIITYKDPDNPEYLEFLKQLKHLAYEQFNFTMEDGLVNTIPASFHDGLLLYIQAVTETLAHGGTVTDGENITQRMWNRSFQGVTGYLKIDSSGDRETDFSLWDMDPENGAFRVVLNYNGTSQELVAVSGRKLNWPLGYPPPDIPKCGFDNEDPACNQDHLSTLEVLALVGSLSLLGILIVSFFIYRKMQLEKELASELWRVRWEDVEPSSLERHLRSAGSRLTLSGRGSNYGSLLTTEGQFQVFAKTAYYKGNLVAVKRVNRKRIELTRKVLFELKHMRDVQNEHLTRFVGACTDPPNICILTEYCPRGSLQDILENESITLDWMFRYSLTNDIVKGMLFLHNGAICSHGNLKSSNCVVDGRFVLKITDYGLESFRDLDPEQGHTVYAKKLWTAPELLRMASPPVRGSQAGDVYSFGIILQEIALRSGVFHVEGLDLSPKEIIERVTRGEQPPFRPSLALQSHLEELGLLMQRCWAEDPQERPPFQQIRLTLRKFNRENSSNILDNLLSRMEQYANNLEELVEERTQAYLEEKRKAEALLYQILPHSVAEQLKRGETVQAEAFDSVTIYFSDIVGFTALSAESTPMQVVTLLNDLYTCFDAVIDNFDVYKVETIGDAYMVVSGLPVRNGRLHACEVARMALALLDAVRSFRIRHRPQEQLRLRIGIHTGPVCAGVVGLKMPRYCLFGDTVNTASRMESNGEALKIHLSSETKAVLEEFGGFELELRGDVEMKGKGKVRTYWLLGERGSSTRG
T1 sequence (P01160 124-151 partner limits assumed): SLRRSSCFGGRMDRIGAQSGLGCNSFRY
Briefly: cGMP production by HTRF in HEK293 cells overexpressing pGC-A, with ANP. The settings on record: for Emax: HEK293, HEK293 cells overexpressing pGC-A, read-out: Max efficacy; for Emax / Max efficacy: cGMP normalized to maximal amount produced by an EC80 concentration of ANP; for pEC50 / Max efficacy: HEK293 cells overexpressing pGC-A; for pEC50: test compound plus EC20 concentration of ANP, cGMP by HTRF. The format is cell-based. The source says:
Assay: Generally, the assay monitors the production of cGMP, the second messenger generated by pGC-A, by Time-Resolved Florescence (HTRF) in HEK293 cells overexpressing the pGC-A. pGC-A suspension cells were stimulated in the presence of the test compound and an EC20 concentration of ANP. The quantity of cGMP was detected by competitive immunoassay using Eu^3+ cryptate-labeled anti-cGMP and d2-labeled cGMP and normalized to maximal amount produced by an EC80 concentration of ANP. Compound EC50 values were determined in the primary assay, in the presence or absence of ANP, to determine mode of action as positive modulators and tested for selectivity in the same assay platform but in HEK cells overexpressing the particulate guanylyl cyclase B receptor (pGC-B), of which CNP is the endogenous ligand.
Assay details: 20 nL of 10 μM test compound in DMSO was added to columns 5-48 of 1536 well white high base screening plates (Corning, New York, NY) cells using 550 ECHO acoustic dispenser (Labcyte, San Jose, CA). Alpha-atrial natriuretic peptide (ANP) (Phoenix Pharmaceutics) was prepared as stock aliquots at 5 μM in PBS with 0.1% BSA. An approximate […] concentration of ANP ([…]) in assay buffer (HBSS containing 5 mM HEPES and 0.05% BSA) was added to columns 3-48 at a volume of 1 μL. Assay buffer only was added to column 1 and assay buffer containing a saturating concentration of ANP (5 nM) was added to column 2. HEK293 cells overexpressing GC-A were resuspended in assay media (OptimMem media containing 2% Heat-inactivated Fetal bovine serum and L-glutamine) at a density of 6×10^5 cells/mL and 2 μL were plated in screening plates (1200 cells/well) in suspension using a Bioraptr 2. Plates were spun at 1000 rpm for 1 min and incubated for 30 min at room temperature. 1.5 μL d2-labeled cGMP followed by 1.5 μL Eu^3+ cryptate-labeled anti-cGMP cGMP detection kit (CiBio; #62GM2PEC) prepared according to manufacturer's protocol were added to all wells using a Bioraptr 2 and TR-FRET signal was detected on an EnVision detector (PerkinElmer). Wells treated with 0.3% DMSO only serve as blank controls (column 1); wells treated with 0.3% DMSO and 5 nM ANP (columns 2) serve as positive controls and wells treated with 0.3% DMSO and […] ANP (columns 3-4) serve as negative controls.

The structures appear in SMILES notation. pEC50: −log10 of the molar value. Several values for one entry are separate records, joined by “and”; a condition that tells them apart may be missing. Equal values may be shown once.

With `O=C(Nc1nc2c(Cl)cc(F)cc2s1)C1CCCN(c2ccncc2)C1` (stereo not drawn) [compound 104], the Emax was 70% and the pEC50 is 6.55. Regarding `Cc1cc(N2CCCC(C(=O)Nc3nc4c(F)cc(F)cc4s3)C2)ccn1` (stereo not drawn) [compound 105], the Emax amounted to 87% and the negative logarithm of the EC50 (pEC50) was 7.05.

As to `O=C(Nc1nc2c(F)cc(F)cc2s1)C1CCCN(c2ccnc(F)c2)C1` (stereo not drawn) [compound 106], the Emax stood at 101% and the negative logarithm of the EC50 (pEC50) is 5.46.

Turning to `COc1cc(N2CCCC(C(=O)Nc3nc4c(F)cc(F)cc4s3)C2)ccn1` (stereo not drawn) [compound 107], the Emax was determined as 101% and the negative-log EC50 (pEC50) was 5.68. The matching figures for `Nc1cc(N2CCCC(C(=O)Nc3nc4c(F)cc(F)cc4s3)C2)ccn1` (stereo not drawn) [compound 108]: 88% and 6.22. With `O=C(Nc1nc2c(F)cc(F)cc2s1)C1CCCN(c2ccncn2)C1` (stereo not drawn) [compound 109], the Emax was 82%; the Max efficacy turned out to be 74%; the pEC50 was 6.70 and 5.97. With `O=C(Nc1nc2c(F)cc(F)cc2s1)C1CCCN(Cc2ccncc2)C1` (stereo not drawn) [compound 110], the Emax stood at 95%; the Max efficacy is reported as 78%; the pEC50 is 6.34 and 5.96.

Regarding `Cc1cncnc1N1CCCC(C(=O)Nc2nc3c(F)cc(F)cc3s2)C1` (stereo not drawn) [compound 111], the Emax turned out to be 65% and the pEC50 is 6.40. Take `O=C(Nc1nc2c(F)cc(F)cc2s1)C1CCCN(c2ccncc2F)C1` (stereo not drawn) [compound 112]: the Emax came out at 97%. With `O=C(Nc1nc2c(F)cc(F)cc2s1)C1CCCN(c2ccncc2Br)C1` (stereo not drawn) [compound 113], the pEC50 is below 5.30.

For the compound `O=C(Nc1nc2c(Cl)cc(F)cc2s1)C1CCCN(c2ccnc3ccccc23)C1` (stereo not drawn) [compound 114], the pEC50 was below 5.30. With `O=C(Nc1nc2c(Cl)cc(F)cc2s1)C1CCCN(c2ccnnc2)C1` (stereo not drawn) [compound 115], the Emax was 56% and the pEC50 was 7.00. In the same order, the values of `CC1C(N2CCCC(C(=O)Nc3nc4c(Cl)cc(F)cc4s3)C2)CN1C` (stereo not drawn) [compound 130] are 94% and 6.92.

Consider `CC1NCC1N1CCCC(C(=O)Nc2nc3c(Cl)cc(F)cc3s2)C1` (stereo not drawn) [compound 131], for which the Emax turned out to be 81% and the pEC50 was 6.89. Consider `CCN1CC(N2CCCC(C(=O)Nc3nc4c(Cl)cc(F)cc4s3)C2)C1` (stereo not drawn) [compound 135], for which the Emax was 85% and the pEC50 was 6.96.

For the compound `O=C(Nc1nc2c(Cl)cc(F)cc2s1)C1CCCN(C2CNC2)C1` (stereo not drawn) [compound 136], the Emax turned out to be 46% and the negative logarithm of the EC50 (pEC50) is 6.52. The matching figures for `CCC(C)N1CC(N2CCCC(C(=O)Nc3nc4c(Cl)cc(F)cc4s3)C2)C1` (stereo not drawn) [compound 137]: 80% and 7.10. Turning to `CC(=O)N1CC(N2CCCC(C(=O)Nc3nc4c(Cl)cc(F)cc4s3)C2)C1` (stereo not drawn) [compound 138], the Emax was determined as 46% and the pEC50 was 5.96. The matching figures for `COC(=O)CN1CC(N2CCCC(C(=O)Nc3nc4c(Cl)cc(F)cc4s3)C2)C1` (stereo not drawn) [compound 139]: 79% and 6.70.

With `CN(C)CCN1CCCC(C(=O)Nc2nc(-c3ccccc3)cs2)C1` (stereo not drawn) [compound 144], the pEC50 was below 5.30. On the same count and under the same terms, then `CN(C)CCN1CCCC(C(=O)Nc2nc(-c3ccccc3F)cs2)C1` (stereo not drawn) [compound 145], with below 5.30. The same measure, in the same setting: then `CN(C)CCN1CCCC(C(=O)Nc2nc(-c3cccc(F)c3)cs2)C1` (stereo not drawn) [compound 146], with below 5.30; and `CN(C)CCN1CCCC(C(=O)Nc2nc(-c3ccc(F)cc3)cs2)C1` (stereo not drawn) [compound 147], with below 5.30. The same measure, in the same setting: then `CN(C)CCN1CCCC(C(=O)Nc2nc(-c3ccccc3Cl)cs2)C1` (stereo not drawn) [compound 148], with below 5.30; and `CN(C)CCN1CCCC(C(=O)Nc2nc(-c3cccc(Cl)c3)cs2)C1` (stereo not drawn) [compound 149], with below 5.30; and `CN(C)CCN1CCCC(C(=O)Nc2nc(-c3ccc(Cl)cc3)cs2)C1` (stereo not drawn) [compound 150], with below 5.30. As to `Cc1ccccc1-c1csc(NC(=O)C2CCCN(CCN(C)C)C2)n1` (stereo not drawn) [compound 151], the negative-log EC50 (pEC50) is below 5.30.

`Cc1cccc(-c2csc(NC(=O)C3CCCN(CCN(C)C)C3)n2)c1` (stereo not drawn) [compound 152]: the negative logarithm of the EC50 (pEC50) was below 5.30. Regarding `Cc1ccc(-c2csc(NC(=O)C3CCCN(CCN(C)C)C3)n2)cc1` (stereo not drawn) [compound 153], the pEC50 is below 5.30. Turning to `COc1ccccc1-c1csc(NC(=O)C2CCCN(CCN(C)C)C2)n1` (stereo not drawn) [compound 154], the negative-log EC50 (pEC50) was below 5.30. Same read-out and setting: then `COc1cccc(-c2csc(NC(=O)C3CCCN(CCN(C)C)C3)n2)c1` (stereo not drawn) [compound 155], with below 5.30.

As for `COc1ccc(-c2csc(NC(=O)C3CCCN(CCN(C)C)C3)n2)cc1` (stereo not drawn) [compound 156], the negative logarithm of the EC50 (pEC50) was below 5.30. Same read-out and setting: then `COCCOc1ccc(-c2csc(NC(=O)C3CCCN(CCN(C)C)C3)n2)cc1` (stereo not drawn) [compound 160], with below 5.30; and `CN(C)CCN1CCCC(C(=O)Nc2ncc(-c3ccccc3)s2)C1` (stereo not drawn) [compound 169], with below 5.30; and `CN(C)CCN1CCCC(C(=O)Nc2nc3c(F)cc(F)cc3c(=O)[nH]2)C1` (stereo not drawn) [compound 182], with below 5.30. The same measure, in the same setting: then `O=C(Nc1nc2c(F)cc(F)cc2c(=O)[nH]1)C1CCCNC1` (stereo not drawn) [compound 183], with below 5.30; and `CN(C)CCN1CCCC(C(=O)Nc2ccc3cccc(F)c3n2)C1` (stereo not drawn) [compound 191], with below 5.30; and `O=C(Nc1nc2c(F)cc(F)cc2s1)c1ccccc1` [compound 199], with below 5.00. On the same count and under the same terms, then `O=C(Nc1nc2c(F)cc(F)cc2s1)c1ccccc1Cl` [compound 200], with below 5.00; and `O=C(Nc1nc2c(F)cc(F)cc2s1)c1cccc(Cl)c1` [compound 201], with below 5.00.

`O=C(Nc1nc2c(F)cc(F)cc2s1)c1ccc(Cl)cc1` [compound 202]: the pEC50 is below 5.00. On the same count and under the same terms, then `COc1ccccc1C(=O)Nc1nc2c(F)cc(F)cc2s1` [compound 203], with below 5.00; and `COc1cccc(C(=O)Nc2nc3c(F)cc(F)cc3s2)c1` [compound 204], with below 5.00. On the same count and under the same terms, then `COc1ccc(C(=O)Nc2nc3c(F)cc(F)cc3s2)cc1` [compound 205], with below 5.00; and `O=C(Nc1nc2c(F)cc(F)cc2s1)c1ccc(-c2ccccc2)cc1` [compound 206], with below 5.00. On the same count and under the same terms, then `CN(C)CCN[C@@H]1CCC[C@H](C(=O)Nc2nc3c(F)cc(F)cc3s2)C1` [compound 207], with below 5.30. As to `N[C@@H]1CCCC(C(=O)Nc2nc3c(F)cc(F)cc3s2)C1` (stereo partly drawn) [compound 208], the Emax was 87%. For the compound `N[C@@H]1CCC[C@H](C(=O)Nc2nc3c(F)cc(F)cc3s2)C1` [compound 208], the negative logarithm of the EC50 (pEC50) was 6.15.

Usually pEC50 stands for the EC50 on a negative log10 scale, so that one unit is a factor of ten.

These data come from patent publication US20250092030A1, “ENHANCERS OF PARTICULATE GUANYLYL CYCLASE RECEPTOR A” (Mayo Foundation for Medical Education and Research, priority 2023, published 2025).
